Assay results from PubChem BioAssay (NCI).
Where “and” joins values, the source holds several entries; their conditions need not be identical. Identical values can stand only once.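 1) Cells in 96-well plates. 2) Compound, 48 h, 5 concentrations. 3) Linear interpolation between surrounding doses. 4) Unreached endpoint = highest concentration. At the TGI there is no net growth.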 Where a SMILES comes first, the peptide text is derived from it. The star is where a group is joined. Cbz = O=C(OCc1ccccc1)*; Boc = CC(C)(C)OC(=O)*; OSu = O=C1CCC(=O)N1O*; Bn = c1ccc(C*)cc1

Columns and labels:
Experiment in all cases: NCI anticancer screen, dose series, 48 h
HOP-92 NSCLC = tested on: HOP-92 NSCLC
SR leukemia = tested on: SR leukemia
BT-549 breast = tested on: BT-549 breast
SN12C renal = tested on: SN12C renal
HCT-116 colon = tested on: HCT-116 colon
MCF7 breast = tested on: MCF7 breast
A549 NSCLC = tested on: A549 NSCLC
T-47D breast = tested on: T-47D breast
HCC-2998 colon = tested on: HCC-2998 colon
OVCAR-4 ovarian = tested on: OVCAR-4 ovarian
OVCAR-5 ovarian = tested on: OVCAR-5 ovarian
PC-3 prostate = tested on: PC-3 prostate
SK-MEL-28 melanoma = tested on: SK-MEL-28 melanoma
U251 CNS = tested on: U251 CNS
RXF 393 renal = tested on: RXF 393 renal

COc1cccc(CCCNC(=O)Cc2ccccc2CO)c1
TGI (HOP-92 NSCLC): > 100 µM
TGI (SR leukemia): > 100 µM
TGI (BT-549 breast): > 100 µM
TGI (SN12C renal): > 100 µM
TGI (HCT-116 colon): > 100 µM
TGI (MCF7 breast): > 100 µM
TGI (A549 NSCLC): > 100 µM
TGI (T-47D breast): > 100 µM
TGI (HCC-2998 colon): > 100 µM
TGI (OVCAR-4 ovarian): > 100 µM
TGI (OVCAR-5 ovarian): > 100 µM
TGI (PC-3 prostate): > 100 µM
TGI (SK-MEL-28 melanoma): > 100 µM
TGI (U251 CNS): > 100 µM

COC(=O)c1ccccc1C1CN=NC12Cc1c(C)ccc(C)c1C2=O (configuration not stated)
TGI (HOP-92 NSCLC): > 100 µM
TGI (BT-549 breast): > 100 µM
TGI (SN12C renal): > 100 µM
TGI (HCT-116 colon): > 100 µM
TGI (MCF7 breast): > 100 µM
TGI (A549 NSCLC): > 100 µM
TGI (T-47D breast): > 100 µM
TGI (HCC-2998 colon): > 100 µM
TGI (OVCAR-4 ovarian): > 100 µM
TGI (OVCAR-5 ovarian): > 100 µM
TGI (PC-3 prostate): > 100 µM
TGI (SK-MEL-28 melanoma): > 100 µM
TGI (U251 CNS): > 100 µM
TGI (RXF 393 renal): > 100 µM

Cc1cc(=O)n2nc(CSc3nnc(Sc4cc(O)ccc4O)s3)sc2n1
TGI (HOP-92 NSCLC): > 100 µM
TGI (SR leukemia): > 100 µM
TGI (BT-549 breast): > 100 µM
TGI (SN12C renal): > 100 µM
TGI (HCT-116 colon): 41.2 µM
TGI (MCF7 breast): 30.9 µM
TGI (A549 NSCLC): > 100 µM
TGI (T-47D breast): 73.6 µM
TGI (HCC-2998 colon): > 100 µM
TGI (OVCAR-4 ovarian): > 100 µM
TGI (OVCAR-5 ovarian): > 100 µM
TGI (PC-3 prostate): > 100 µM
TGI (SK-MEL-28 melanoma): > 100 µM
TGI (U251 CNS): > 100 µM
TGI (RXF 393 renal): > 100 µM

COc1cccc(N=NN2CCCC2)c1
TGI (HOP-92 NSCLC): > 100 µM
TGI (SR leukemia): > 100 µM
TGI (BT-549 breast): > 100 µM
TGI (SN12C renal): > 100 µM
TGI (HCT-116 colon): > 100 µM
TGI (MCF7 breast): > 100 µM
TGI (T-47D breast): > 100 µM
TGI (OVCAR-4 ovarian): > 100 µM
TGI (OVCAR-5 ovarian): > 100 µM
TGI (PC-3 prostate): > 100 µM
TGI (U251 CNS): > 100 µM
TGI (RXF 393 renal): > 100 µM

O=c1c2cc(I)ccc2nc(-c2cccs2)n1O
TGI (HOP-92 NSCLC): 79.6 µM
TGI (SR leukemia): > 100 µM
TGI (BT-549 breast): > 100 µM
TGI (SN12C renal): > 100 µM
TGI (HCT-116 colon): > 100 µM
TGI (MCF7 breast): > 100 µM
TGI (A549 NSCLC): 61.2 µM
TGI (T-47D breast): 77.5 µM
TGI (HCC-2998 colon): > 100 µM
TGI (OVCAR-4 ovarian): 96.9 µM
TGI (OVCAR-5 ovarian): > 100 µM
TGI (PC-3 prostate): > 100 µM
TGI (SK-MEL-28 melanoma): > 100 µM
TGI (U251 CNS): > 100 µM
TGI (RXF 393 renal): > 100 µM

Cc1ccc(NCCN(C)C)c2c(=O)c3cc(O)ccc3sc12
TGI (HOP-92 NSCLC): 14.4 µM
TGI (SR leukemia): 4.79 µM
TGI (BT-549 breast): 20.3 µM
TGI (SN12C renal): 14 µM
TGI (HCT-116 colon): 8.79 µM
TGI (MCF7 breast): 1.59 µM
TGI (A549 NSCLC): 8.08 µM
TGI (T-47D breast): 28.4 µM
TGI (HCC-2998 colon): 10.4 µM
TGI (OVCAR-4 ovarian): 14.1 µM
TGI (OVCAR-5 ovarian): 29.6 µM
TGI (PC-3 prostate): 11.1 µM
TGI (SK-MEL-28 melanoma): 12.5 µM
TGI (U251 CNS): 8.49 µM
TGI (RXF 393 renal): 4.8 µM

CC(C)(C)OC(=O)NC(Cc1ccc(OCc2ccccc2)cc1)C(=O)NC(CCCCNC(=O)OCc1ccccc1)C(=O)NC(CCCCNC(=O)OCc1ccccc1)C(=O)ON1C(=O)CCC1=O (configuration not stated) (Boc-Tyr(Bn)-Lys(Cbz)-Lys(Cbz)-OSu; configuration not given here)
TGI (HOP-92 NSCLC): > 100 µM
TGI (SR leukemia): > 100 µM
TGI (BT-549 breast): 33.2 µM
TGI (HCT-116 colon): 58.7 µM
TGI (MCF7 breast): 39.3 µM
TGI (A549 NSCLC): > 100 µM
TGI (T-47D breast): > 100 µM
TGI (OVCAR-4 ovarian): > 100 µM
TGI (OVCAR-5 ovarian): > 100 µM
TGI (SK-MEL-28 melanoma): > 100 µM
TGI (U251 CNS): 31.8 µM
TGI (RXF 393 renal): > 100 µM

Cc1cc2occ(S(=O)(=O)NC(=O)Nc3ccc(Cl)cc3)c(=O)c2c(=O)o1
TGI (HOP-92 NSCLC): > 100 µM
TGI (BT-549 breast): > 100 µM
TGI (SN12C renal): > 100 µM
TGI (HCT-116 colon): > 100 µM
TGI (MCF7 breast): > 100 µM
TGI (A549 NSCLC): > 100 µM
TGI (T-47D breast): > 100 µM
TGI (HCC-2998 colon): > 100 µM
TGI (OVCAR-4 ovarian): > 100 µM
TGI (OVCAR-5 ovarian): > 100 µM
TGI (PC-3 prostate): > 100 µM
TGI (SK-MEL-28 melanoma): > 100 µM
TGI (U251 CNS): > 100 µM
TGI (RXF 393 renal): > 100 µM

CC1CCCN1CCCOC(=O)c1ccc(OC2C=CCCC2)cc1 (configuration not stated)
TGI (SR leukemia): 59.9 µM
TGI (BT-549 breast): > 100 µM
TGI (SN12C renal): > 100 µM
TGI (HCT-116 colon): 35.8 µM
TGI (MCF7 breast): 49.6 µM
TGI (A549 NSCLC): > 100 µM
TGI (T-47D breast): 34.4 µM
TGI (HCC-2998 colon): 64.9 µM
TGI (OVCAR-4 ovarian): > 100 µM
TGI (OVCAR-5 ovarian): > 100 µM
TGI (PC-3 prostate): 78.9 µM
TGI (SK-MEL-28 melanoma): > 100 µM
TGI (U251 CNS): > 100 µM
TGI (RXF 393 renal): 52 µM

COc1ccc(C23OCC(Cc4cc(OC)c(OC)cc42)C3CO)cc1OC (configuration not stated)
TGI (SR leukemia): > 100 µM
TGI (BT-549 breast): > 100 µM
TGI (HCT-116 colon): > 100 µM
TGI (MCF7 breast): > 100 µM
TGI (A549 NSCLC): > 100 µM
TGI (T-47D breast): > 100 µM
TGI (HCC-2998 colon): > 100 µM
TGI (OVCAR-4 ovarian): > 100 µM
TGI (OVCAR-5 ovarian): > 100 µM
TGI (PC-3 prostate): > 100 µM
TGI (SK-MEL-28 melanoma): > 100 µM
TGI (U251 CNS): > 100 µM
TGI (RXF 393 renal): > 100 µM

CCC(=C/[C@H](C)C/C=C/C(C)=C/[C@@H](C)C(=O)[C@@H](C)[C@H](O)[C@@H](C)CC)/C=C/[C@H]1CC=CC(=O)O1
TGI (HOP-92 NSCLC): 4.26 µM
TGI (BT-549 breast): 1.37 µM
TGI (HCT-116 colon): 0.002 µM
TGI (MCF7 breast): 0.0033 µM
TGI (A549 NSCLC): 6.32 µM and 13.5 µM
TGI (T-47D breast): 1.88 µM
TGI (HCC-2998 colon): < 0.0012 µM
TGI (OVCAR-4 ovarian): 12 µM
TGI (OVCAR-5 ovarian): 1.91 µM and 11 µM
TGI (PC-3 prostate): 1.45 µM and 11.5 µM
TGI (SK-MEL-28 melanoma): 2.81 µM and 15.1 µM
TGI (U251 CNS): 1.4 µM and 11.6 µM
TGI (RXF 393 renal): < 0.0012 µM

COC(=O)[C@@H]1COC(=O)N1
TGI (HOP-92 NSCLC): > 100 µM
TGI (BT-549 breast): > 100 µM
TGI (SN12C renal): > 100 µM
TGI (HCT-116 colon): > 100 µM
TGI (MCF7 breast): > 100 µM
TGI (A549 NSCLC): > 100 µM
TGI (T-47D breast): > 100 µM
TGI (HCC-2998 colon): > 100 µM
TGI (OVCAR-4 ovarian): > 100 µM
TGI (OVCAR-5 ovarian): > 100 µM
TGI (PC-3 prostate): > 100 µM
TGI (SK-MEL-28 melanoma): > 100 µM
TGI (U251 CNS): > 100 µM
TGI (RXF 393 renal): > 100 µM

Cc1cc(C)n2c(nc3ccccc32)c1C#N
TGI (HOP-92 NSCLC): 79.8 µM
TGI (BT-549 breast): > 100 µM
TGI (SN12C renal): > 100 µM
TGI (HCT-116 colon): > 100 µM
TGI (MCF7 breast): > 100 µM
TGI (A549 NSCLC): > 100 µM
TGI (T-47D breast): > 100 µM
TGI (HCC-2998 colon): > 100 µM
TGI (OVCAR-4 ovarian): > 100 µM
TGI (OVCAR-5 ovarian): > 100 µM
TGI (PC-3 prostate): > 100 µM
TGI (SK-MEL-28 melanoma): > 100 µM
TGI (U251 CNS): > 100 µM
TGI (RXF 393 renal): > 100 µM

O=C1/C(=C/c2ccc(Cl)cc2)Oc2ccccc21
TGI (SR leukemia): > 100 µM
TGI (BT-549 breast): > 100 µM
TGI (SN12C renal): > 100 µM
TGI (HCT-116 colon): > 100 µM
TGI (MCF7 breast): > 100 µM
TGI (A549 NSCLC): 35 µM
TGI (T-47D breast): 90.3 µM
TGI (HCC-2998 colon): > 100 µM
TGI (OVCAR-4 ovarian): > 100 µM
TGI (SK-MEL-28 melanoma): > 100 µM
TGI (U251 CNS): > 100 µM
TGI (RXF 393 renal): 54.8 µM

O=C(O)C1(C(O)c2ccccc2)SCCCS1 (configuration not stated)
TGI (HOP-92 NSCLC): > 10 µM
TGI (SR leukemia): > 10 µM
TGI (BT-549 breast): > 10 µM
TGI (SN12C renal): > 10 µM
TGI (HCT-116 colon): > 10 µM
TGI (MCF7 breast): > 10 µM
TGI (A549 NSCLC): > 10 µM
TGI (T-47D breast): > 10 µM
TGI (OVCAR-5 ovarian): > 10 µM
TGI (PC-3 prostate): > 10 µM
TGI (SK-MEL-28 melanoma): > 10 µM
TGI (U251 CNS): > 10 µM
TGI (RXF 393 renal): > 10 µM

CCCCCCCc1ccc(-c2nnc(N=Nc3ccc(OCCCCC)cc3)s2)s1
TGI (BT-549 breast): > 100 µM
TGI (SN12C renal): > 100 µM
TGI (HCT-116 colon): > 100 µM
TGI (MCF7 breast): > 100 µM
TGI (A549 NSCLC): > 100 µM
TGI (T-47D breast): > 100 µM
TGI (HCC-2998 colon): > 100 µM
TGI (OVCAR-4 ovarian): > 100 µM
TGI (OVCAR-5 ovarian): > 100 µM
TGI (PC-3 prostate): > 100 µM
TGI (SK-MEL-28 melanoma): > 100 µM
TGI (U251 CNS): > 100 µM
TGI (RXF 393 renal): > 100 µM
